Experimental data published in patent publication US20100150894A1, “COMPOSITION FOR PREVENTION OF CANCER” (Kaneka Corporation, priority 2005, published 2010).

System: azoxymethane (AOM)-induced aberrant crypt foci (ACF) in colon
Assay: Cancer prevention evaluation: AOM-induced colon aberrant crypt foci (ACF) in rats
Format: in vivo
Conditions: male F344 rats, 4 weeks; for number of formation of ACF compared with the control group: AOM 15 mg/kg s.c. once a week over two weeks
Procedure: 6-week-old male F344 rats were divided into 3 groups (2 treated groups and 1 control group; each group consisted of 9 rats) and a colon carcinogen azoxymethane (AOM) was injected subcutaneously at the dose of 15 mg/kg body weight once a week over two weeks. From the day before injection of AOM, to the treated groups, coenzyme Q10 (Kaneka Q10, Kaneka Corporation) was fed together with feed at the concentration of 200 or 500 ppm, respectively. 4 weeks later, aberrant crypt foci (ACF), which is a precancerous change in colon cancer, was analyzed. After the rats were sacrificed, the colons (from the cecum to rectum) were enucleated and fixed using a 10% neutral buffered formalin. After the fixation, the colons were washed with a phosphate buffered-saline and stained with a 0.2% methylene blue-containing phosphate buffered-saline. Then, the number and size of ACF were measured using a microscope. […] As observed above, it was made clear that coenzyme Q10 has an effect for inhibiting the initial stage of AOM-induced formation of colon ACF, which is a precancerous change of colon cancer.

Q: How did the “number of formation of ACF compared with the control group” value (coenzyme Q10 200 ppm in feed) turn out when `COC1=C(OC)C(=O)C(C/C=C(\C)CC/C=C(\C)CC/C=C(\C)CC/C=C(\C)CC/C=C(\C)CC/C=C(\C)CC/C=C(\C)CC/C=C(\C)CC/C=C(\C)CCC=C(C)C)=C(C)C1=O` [coenzyme Q10] was run?
A: The value was 76.6%.

Q: And the “number of formation of ACF compared with the control group” value (coenzyme Q10 500 ppm in feed, p<0.01)?
A: The value was 68.0%.

Q: What about the “size difference in ACF between control group and treated groups” value (AOM-induced, coenzyme Q10 200 or 500 ppm in feed) of the same compound?
A: The value was “not recognized”.
